Reference: patent US7456223B2, “Treatment of bruxism” (priority 2004, dated 2008)

What was measured:
skeletal muscle spasm = conditions: after application
Excerpt: Cyclobenzaprine is a 5-HT2 receptor antagonist and its muscle relaxant effect is due to inhibition of serotonergic neurons.

[1] = taken orally; cited from earlier work
[2] = taken orally; cited from earlier work; remark: listed apart in the source

Structure (SMILES): CN(C)CCC=C1c2ccccc2C=Cc2ccccc21 [cyclobenzaprine]
- time to clinical improvement (local pain and tenderness, range of motion) (skeletal muscle spasm): ≤ 20 min
- binding to plasma proteins [1]: highly bound to plasma proteins
- half life [2]: one to three
